Columns and labels:
Carbonic anhydrase 2 = Carbonic anhydrase 2 (Homo sapiens, UniProt P00918); experiment: DRUGMATRIX: Carbonic Anhydrase II enzyme inhibition (substrate: 4-Nitrophenyl acetate (4-NPA)); assay type: tissue-based, Erythrocyte; conditions: erythrocyte; Not Active = under 50% inhibition at 10 µM
[1] = molecular target: T1, Muscarinic acetylcholine receptor M2 (Homo sapiens, UniProt P08172); assay type: cell membranes, CHO-K1, Membrane; conditions: cho-k1; further: in other assays of this panel Not Active means under 50% inhibition at 10 µM
T1 sequence (P08172 whole entry): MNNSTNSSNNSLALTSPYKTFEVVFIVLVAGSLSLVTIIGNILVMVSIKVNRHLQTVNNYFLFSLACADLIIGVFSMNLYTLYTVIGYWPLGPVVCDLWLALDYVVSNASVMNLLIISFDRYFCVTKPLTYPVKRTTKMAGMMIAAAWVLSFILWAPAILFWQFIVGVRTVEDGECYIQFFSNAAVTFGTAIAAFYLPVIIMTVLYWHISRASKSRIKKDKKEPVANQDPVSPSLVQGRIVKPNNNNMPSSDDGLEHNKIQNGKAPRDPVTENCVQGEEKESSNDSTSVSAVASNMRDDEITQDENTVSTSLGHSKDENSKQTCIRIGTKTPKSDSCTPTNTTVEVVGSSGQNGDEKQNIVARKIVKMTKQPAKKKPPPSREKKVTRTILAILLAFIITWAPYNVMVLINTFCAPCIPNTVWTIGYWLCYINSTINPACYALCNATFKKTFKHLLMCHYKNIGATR

[2] = molecular target: Matrix metalloproteinase-9 (Homo sapiens, UniProt P14780); experiment: biochemical; assay type: cell-based;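 further: inhibition of isolated MMP-9 enzyme activity toward a synthetic peptide substrate, from the DrugMatrix protease screening panel; in other assays of this panel Not Active means under 50% inhibition at 10 µM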
Chain of Matrix metalloproteinase-9 (P14780 whole entry): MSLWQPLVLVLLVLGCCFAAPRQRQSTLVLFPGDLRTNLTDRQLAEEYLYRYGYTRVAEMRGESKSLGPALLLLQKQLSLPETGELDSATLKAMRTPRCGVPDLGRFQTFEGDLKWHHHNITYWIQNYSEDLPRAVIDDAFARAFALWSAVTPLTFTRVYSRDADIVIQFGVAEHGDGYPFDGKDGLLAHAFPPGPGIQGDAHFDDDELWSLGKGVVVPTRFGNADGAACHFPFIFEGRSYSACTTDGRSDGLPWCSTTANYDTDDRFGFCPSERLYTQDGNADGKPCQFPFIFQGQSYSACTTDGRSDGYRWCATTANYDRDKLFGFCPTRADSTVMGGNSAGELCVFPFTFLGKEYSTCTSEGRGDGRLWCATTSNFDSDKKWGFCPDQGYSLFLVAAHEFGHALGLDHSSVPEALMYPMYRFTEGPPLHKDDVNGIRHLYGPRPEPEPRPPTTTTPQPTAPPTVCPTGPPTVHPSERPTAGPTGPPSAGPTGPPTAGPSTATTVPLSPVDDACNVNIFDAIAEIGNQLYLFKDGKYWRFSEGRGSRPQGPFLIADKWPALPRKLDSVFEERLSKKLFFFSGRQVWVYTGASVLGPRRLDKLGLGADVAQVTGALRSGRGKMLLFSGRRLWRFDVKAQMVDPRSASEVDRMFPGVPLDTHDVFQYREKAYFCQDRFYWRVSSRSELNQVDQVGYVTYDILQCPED

Cytochrome P450 2A6 = molecular target: T2, Cytochrome P450 2A6 (Homo sapiens, UniProt P11509); conditions: bti-tn-5b1-4; further: in other assays of this panel Not Active means under 50% inhibition at 10 µM
T2 sequence (P11509 whole entry): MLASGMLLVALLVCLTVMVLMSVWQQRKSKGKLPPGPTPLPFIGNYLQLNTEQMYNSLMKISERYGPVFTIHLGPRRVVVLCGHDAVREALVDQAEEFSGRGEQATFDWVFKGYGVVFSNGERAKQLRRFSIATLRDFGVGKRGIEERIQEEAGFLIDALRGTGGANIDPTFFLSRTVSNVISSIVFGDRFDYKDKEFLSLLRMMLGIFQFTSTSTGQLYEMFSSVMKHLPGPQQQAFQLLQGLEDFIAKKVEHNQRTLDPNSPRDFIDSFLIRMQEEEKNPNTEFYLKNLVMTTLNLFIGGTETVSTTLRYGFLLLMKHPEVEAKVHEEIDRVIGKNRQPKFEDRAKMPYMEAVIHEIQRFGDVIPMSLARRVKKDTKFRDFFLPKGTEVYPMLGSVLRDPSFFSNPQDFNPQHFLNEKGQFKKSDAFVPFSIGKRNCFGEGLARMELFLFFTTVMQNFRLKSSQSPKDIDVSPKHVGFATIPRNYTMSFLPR

[3] = DRUGMATRIX: Calcium Channel Type L, Benzothiazepine radioligand binding (ligand: [3H] Diltiazem); assay type: cell membranes, Rattus norvegicus, Wistar, Brain, Membrane; conditions: Not Active = under 50% inhibition at 10 µM
[4] = DRUGMATRIX: GABAA, Flunitrazepam, Central radioligand binding (ligand: [3H] Flunitrazepam); assay type: cell membranes, Rattus norvegicus, Wistar, Brain, Membrane; conditions: Not Active = under 50% inhibition at 10 µM
Cytochrome P450 2D6 = Cytochrome P450 2D6 (Homo sapiens, UniProt P10635); conditions: bti-tn-5b1-4; further: in other assays of this panel Not Active means under 50% inhibition at 10 µM
Chain of Cytochrome P450 2D6 (P10635 whole entry): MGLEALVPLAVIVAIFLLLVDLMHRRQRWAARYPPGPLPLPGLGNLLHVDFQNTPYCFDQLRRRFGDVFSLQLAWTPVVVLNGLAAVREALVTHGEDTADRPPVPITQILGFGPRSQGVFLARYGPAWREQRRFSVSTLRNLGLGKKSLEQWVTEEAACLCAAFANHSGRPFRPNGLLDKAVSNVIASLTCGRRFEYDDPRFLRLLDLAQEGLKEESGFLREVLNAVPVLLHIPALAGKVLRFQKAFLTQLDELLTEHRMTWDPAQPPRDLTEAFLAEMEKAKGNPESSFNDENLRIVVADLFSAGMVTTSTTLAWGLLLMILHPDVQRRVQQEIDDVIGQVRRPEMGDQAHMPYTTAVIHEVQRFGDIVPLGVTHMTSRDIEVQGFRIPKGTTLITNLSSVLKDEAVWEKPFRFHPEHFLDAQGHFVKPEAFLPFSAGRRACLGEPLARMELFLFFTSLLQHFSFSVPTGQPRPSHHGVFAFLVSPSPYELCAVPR

Glucocorticoid receptor = molecular target: T3, Glucocorticoid receptor (Homo sapiens, UniProt P04150); conditions: hela s3; further: in other assays of this panel Not Active means under 50% inhibition at 10 µM
T3 sequence (P04150 whole entry): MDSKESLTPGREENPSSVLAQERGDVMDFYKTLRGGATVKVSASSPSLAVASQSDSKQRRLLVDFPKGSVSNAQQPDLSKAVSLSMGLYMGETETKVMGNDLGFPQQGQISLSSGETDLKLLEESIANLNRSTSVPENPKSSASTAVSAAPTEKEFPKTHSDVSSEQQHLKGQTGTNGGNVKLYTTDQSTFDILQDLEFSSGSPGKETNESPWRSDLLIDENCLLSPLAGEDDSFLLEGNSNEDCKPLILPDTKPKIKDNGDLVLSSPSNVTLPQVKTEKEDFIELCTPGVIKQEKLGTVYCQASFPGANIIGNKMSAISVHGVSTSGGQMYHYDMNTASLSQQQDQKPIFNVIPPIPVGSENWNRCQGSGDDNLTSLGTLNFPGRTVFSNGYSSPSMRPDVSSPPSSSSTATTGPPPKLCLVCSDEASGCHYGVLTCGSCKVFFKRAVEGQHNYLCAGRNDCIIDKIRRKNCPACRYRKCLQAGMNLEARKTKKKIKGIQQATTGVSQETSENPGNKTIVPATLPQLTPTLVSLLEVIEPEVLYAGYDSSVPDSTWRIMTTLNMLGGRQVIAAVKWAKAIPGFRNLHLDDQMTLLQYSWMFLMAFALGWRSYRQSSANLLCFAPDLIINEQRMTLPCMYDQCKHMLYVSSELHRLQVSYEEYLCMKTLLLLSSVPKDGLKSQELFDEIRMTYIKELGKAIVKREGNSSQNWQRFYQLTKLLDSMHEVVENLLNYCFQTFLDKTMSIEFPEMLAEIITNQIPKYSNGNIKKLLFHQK

Estrogen receptor = molecular target: T4, Estrogen receptor (Homo sapiens, UniProt P03372); conditions: sf9; further: in other assays of this panel Not Active means under 50% inhibition at 10 µM
T4 sequence (P03372 whole entry): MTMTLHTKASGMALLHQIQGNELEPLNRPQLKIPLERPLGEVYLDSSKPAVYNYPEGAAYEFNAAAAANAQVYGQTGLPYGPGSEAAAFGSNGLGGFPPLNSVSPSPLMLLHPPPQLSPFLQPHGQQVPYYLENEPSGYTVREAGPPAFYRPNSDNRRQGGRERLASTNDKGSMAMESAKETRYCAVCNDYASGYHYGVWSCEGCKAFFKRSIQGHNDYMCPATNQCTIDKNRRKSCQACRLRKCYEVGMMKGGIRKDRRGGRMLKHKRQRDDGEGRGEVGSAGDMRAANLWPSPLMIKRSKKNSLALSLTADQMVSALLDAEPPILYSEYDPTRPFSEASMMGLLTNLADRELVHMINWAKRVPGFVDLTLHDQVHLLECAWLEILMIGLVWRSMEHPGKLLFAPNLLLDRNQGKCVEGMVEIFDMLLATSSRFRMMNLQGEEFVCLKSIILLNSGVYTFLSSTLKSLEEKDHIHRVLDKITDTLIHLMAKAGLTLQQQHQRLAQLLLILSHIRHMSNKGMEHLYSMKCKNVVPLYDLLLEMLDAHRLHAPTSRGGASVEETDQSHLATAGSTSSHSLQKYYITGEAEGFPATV

## CC(C)NCC(O)COc1cccc2ccccc12 (stereo not given) [PROPRANOLOL]
Carbonic anhydrase 2
  IC50: Not Active
[1]
  IC50: Not Active
[2]
  IC50: Not Active
Cytochrome P450 2A6
  IC50: Not Active
  Ki: Not Active

## COCCCOc1ccnc(C[S+]([O-])c2nc3ccccc3[nH]2)c1C (stereo not given) [RABEPRAZOLE]
[3]
  IC50: Not Active
  Ki: Not Active
Carbonic anhydrase 2
  IC50: Not Active
[4]
  IC50: Not Active
  Ki: Not Active
[1]
  IC50: Not Active
[2]
  IC50: Not Active
Cytochrome P450 2A6
  IC50: Not Active
  Ki: Not Active
Cytochrome P450 2D6
  IC50: Not Active
  Ki: Not Active
Glucocorticoid receptor
  IC50: Not Active

## O=C(c1ccc(OCCN2CCCCC2)cc1)c1c(-c2ccc(O)cc2)sc2cc(O)ccc12 [RALOXIFENE]
[3]; read-out: Ki
  Ki: 368 nM
Carbonic anhydrase 2
  IC50: Not Active
[4]
  IC50: Not Active
  Ki: Not Active
[1]
  IC50: Not Active
[2]
  IC50: Not Active
Cytochrome P450 2A6
  IC50: Not Active
  Ki: Not Active
Cytochrome P450 2D6
  IC50: Not Active
  Ki: Not Active
Glucocorticoid receptor
  IC50: Not Active

## CC(C)c1nc(CN(C)C(=O)N[C@H](C(=O)N[C@@H](Cc2ccccc2)C[C@H](O)[C@H](Cc2ccccc2)NC(=O)OCc2cncs2)C(C)C)cs1 [RITONAVIR]
[3]
  IC50: Not Active
  Ki: Not Active
Carbonic anhydrase 2
  IC50: Not Active
[4]
  IC50: Not Active
  Ki: Not Active
[1]
  IC50: Not Active
[2]
  IC50: Not Active
Estrogen receptor
  IC50: Not Active
Glucocorticoid receptor
  IC50: Not Active

## CC(C)CC(N(C)C)C1(c2ccc(Cl)cc2)CCC1 (stereo not given) [SIBUTRAMINE]
[3]; read-out: IC50
  IC50: 809 nM
[3]; read-out: Ki
  Ki: 719 nM
Carbonic anhydrase 2
  IC50: Not Active
[4]
  IC50: Not Active
  Ki: Not Active
[1]
  IC50: Not Active
[2]
  IC50: Not Active
Cytochrome P450 2A6
  IC50: Not Active
  Ki: Not Active
Cytochrome P450 2D6
  IC50: Not Active
  Ki: Not Active
Glucocorticoid receptor
  IC50: Not Active

## Cc1cc(C)nc(NS(=O)(=O)c2ccc(N)cc2)n1 [SULFAMETHAZINE]
[3]
  IC50: Not Active
  Ki: Not Active
Carbonic anhydrase 2
  IC50: Not Active
[4]
  IC50: Not Active
  Ki: Not Active
[1]
  IC50: Not Active
[2]
  IC50: Not Active
Cytochrome P450 2A6
  IC50: Not Active
  Ki: Not Active
Cytochrome P450 2D6
  IC50: Not Active
  Ki: Not Active
Glucocorticoid receptor
  IC50: Not Active

## O=C1CCC(N2C(=O)c3ccccc3C2=O)C(=O)N1 (stereo not given) [THALIDOMIDE]
[3]
  IC50: Not Active
  Ki: Not Active
Carbonic anhydrase 2
  IC50: Not Active
[4]
  IC50: Not Active
  Ki: Not Active
[1]
  IC50: Not Active
[2]
  IC50: Not Active
Cytochrome P450 2A6
  IC50: Not Active
  Ki: Not Active
Cytochrome P450 2D6
  IC50: Not Active
  Ki: Not Active
Glucocorticoid receptor
  IC50: Not Active

## Cc1onc(-c2ccccc2)c1-c1ccc(S(N)(=O)=O)cc1 [VALDECOXIB]
[3]
  IC50: Not Active
  Ki: Not Active
[4]
  IC50: Not Active
  Ki: Not Active
[1]
  IC50: Not Active
[2]
  IC50: Not Active
Cytochrome P450 2A6
  IC50: Not Active
  Ki: Not Active
Cytochrome P450 2D6
  IC50: Not Active
  Ki: Not Active
Glucocorticoid receptor
  IC50: Not Active

## CC(=O)CC(c1ccccc1)c1c(O)c2ccccc2oc1=O (stereo not given) [WARFARIN]
[3]
  IC50: Not Active
  Ki: Not Active
Carbonic anhydrase 2
  IC50: Not Active
[4]
  IC50: Not Active
  Ki: Not Active
[1]
  IC50: Not Active
[2]
  IC50: Not Active
Cytochrome P450 2A6
  IC50: Not Active
  Ki: Not Active
Cytochrome P450 2D6
  IC50: Not Active
  Ki: Not Active

— ChEMBL document CHEMBL1909046, “DrugMatrix in vitro pharmacology data”
